Measurements taken from the NIST ThermoML archive (doi:10.1021/je900966r).

Assays:
[1] = refractive index (Na D-line) (dimensionless); mn = molality of the nth substance listed, in mol/kg; settings: 298.15 K, 101 kPa, Liquid, Standard Abbe refractometry
[2] = mn = molality of the nth substance listed, in mol/kg; settings: 101 kPa, Liquid

OC[C@@H](O)[C@@H](O)[C@H](O)[C@H](O)CO [mannitol] + O
[1]
Settings	refractive index
m1 = 0.1	1.3358
m1 = 0.1499	1.337
m1 = 0.1999	1.3385
m1 = 0.25	1.3396
m1 = 0.3	1.341
m1 = 0.35	1.3422
m1 = 0.4	1.343

mass density [kg/m3], [2]
Settings	m1 = 0.1	m1 = 0.1499	m1 = 0.1999	m1 = 0.25	m1 = 0.3	m1 = 0.35	m1 = 0.4
293.15 K	1004.39	1007.5	1010.61	1013.69	1016.75	1019.74	1022.71
298.15 K	1003.21	1006.3	1009.4	1012.46	1015.48	1018.46	1021.43
303.15 K	1001.79	1004.87	1007.95	1010.98	1013.99	1016.97	1019.92
308.15 K	1000.12	1003.19	1006.23	1009.26	1012.25	1015.19	1018.13
313.15 K	998.283	1001.33	1004.36	1007.37	1010.33	1013.26	1016.18

O [water] + OC[C@@H](O)[C@@H](O)[C@H](O)[C@H](O)CO
Settings	refractive index
[1], m2 = 0	1.3326

CCCO [propan-1-ol] + O
[1]
Settings	refractive index
m1 = 0.1001	1.3331
m1 = 0.15	1.3338
m1 = 0.2	1.3341
m1 = 0.3	1.3344
m1 = 0.4	1.3349
m1 = 0.5	1.3353

mass density [kg/m3], [2]
Settings	m1 = 0.1001	m1 = 0.15	m1 = 0.2	m1 = 0.3	m1 = 0.4	m1 = 0.5
293.15 K	996.609	996.479	996.336	995.903	994.27	993.364
298.15 K	995.441	995.293	995.163	994.694	993.072	992.148
303.15 K	994.029	993.828	993.747	993.242	991.629	990.687
308.15 K	992.397	992.237	992.113	991.569	989.962	989.004
313.15 K	990.564	990.399	990.278	989.694	988.093	987.114

CC(C)O [propan-2-ol] + O
[1]
Settings	refractive index
m1 = 0.1	1.3329
m1 = 0.1501	1.3335
m1 = 0.1999	1.3338
m1 = 0.3	1.3341
m1 = 0.3998	1.3345
m1 = 0.5	1.335

mass density [kg/m3], [2]
Settings	m1 = 0.1	m1 = 0.1501	m1 = 0.1999	m1 = 0.3	m1 = 0.3998	m1 = 0.5
293.15 K	996.544	995.924	995.4	994.591	993.922	993.065
298.15 K	995.386	994.764	994.22	993.429	992.857	991.893
303.15 K	993.986	993.358	992.795	992.018	991.441	990.472
308.15 K	992.365	991.731	991.148	990.384	989.702	988.826
313.15 K	990.542	989.901	989.299	988.545	987.816	986.979
